Laboratory results from patent US20200323897A1, “METHODS FOR DISTRIBUTING AGENTS TO AREAS OF BRAIN” (Medtronic, Inc., priority 2010, published 2020).

Assays:
[1] = Intracerebroventricular (lateral ventricle) infusion at low flow rates, distribution tracked by MRI; format: in vivo, rhesus monkey; conditions: ICV
Procedure: (§1) CADD ambulatory infusion pumps were used to deliver gadolinium (Gd) labeled diethylene triamine pentaacetic acid (DTPA) or Gd-labeled albumin to rhesus monkeys, either intrathecally or intracerebroventricularly. Distribution of the Gd-labeled agents was tracked in-life via magnetic resonance imaging (MRI).
(§2) For the Gd-DTPA studies, various concentrations of the Gd-DTPA were administered. The Gd-DTPA was administered intrathecally at L2 or intracerebroventricularly via a lateral ventricle at a variety of flow rates. Within a given monkey various flow rates were tested, followed by a washout period with phosphate buffered saline (PBS). An example study design that was used is presented below in Table 2:
Referring now to FIGS. 8A-F, MM images of a rhesus monkey receiving various concentrations of Gd-DPTA intracerebroventricularly at various flow rates are shown. FIG. 8A is an MRI image of a monkey receiving PBS prior to infusion of the Gd-DPTA. FIG. 8B is an MM image of a monkey receiving 486 mg/ml at 0.048 ml/day. FIG. 8C is an MRI image of a monkey receiving 280 mg/ml at 0.1 ml/day. FIG. 8D is an MRI image of a monkey receiving 70 mg/ml at 0.4 ml/day. FIG. 8E is an MRI image of a monkey receiving 35 mg/ml at 0.8 ml/day. FIG. 8F is an MM image of a monkey receiving 22 mg/ml at 1.2 ml/day. […] Accordingly, broad distribution appears to be achievable at low flow rates, regardless of the CSF site of administration.
Referring now to FIGS. 11A-F, MRI images of a rhesus monkey receiving various concentrations of Gd-albumin intracerebroventricularly at various flow rates are shown. FIG. 11A is an MM image of a monkey receiving PBS prior to infusion of the Gd-albumin. FIG. 11B is an MM image of a monkey receiving 100 mg/ml at 0.1 ml/day at one day of infusion. FIG. 11C is an MRI image of a monkey receiving 100 mg/ml at 0.4 ml/day at one day of infusion. FIG. 11D is an MRI image of a monkey receiving 100 mg/ml at 0.4 ml/day at three days of infusion. FIG. 11E is an MRI image of a monkey receiving 100 mg/ml at 0.8 ml/day at one day of infusion. FIG. 11F is an MRI image of a monkey receiving 64 mg/ml at 1.2 ml/day at one day of infusion.

[2] = Intrathecal (L2) infusion at low flow rates, distribution tracked by MRI; format: in vivo, rhesus monkey
Procedure: as §1, §2
While not detectable at lower concentrations, it is believed that the distribution of the lower concentration agent was similar to that observed at the 70 mg/ml concentration at similar flow rates. […] FIG. 6A is an MRI image of the same monkey prior to infusion of Gd-DTPA.
For the Gd-albumin studies, various concentrations of the Gd-albumin were administered intrathecally at L2 at various flow rates. FIGS. 9A-E are MRI images of rhesus monkeys receiving intrathecal Gd-albumin.

[3] = Infusion into the CSF at low flow rates (IT or ICV), overall statements on distribution; format: in vivo, rhesus monkey
From the text: as §1

[4] = humans, intrathecal, constant rate of 0.5 ml/day; cited from earlier work

| Compound | steady state distribution in the CSF ([1]; 0.048 mL/day) | steady state distribution in the CSF ([1]; 0.1 mL/day) | distribution within the CSF ([1]; 0.1 mL/day for a period of 6 hours) | distribution in the CSF (FIG. 8) ([1]; flow rates of about 0.05 ml/day or greater, 22-486 mg/ml) | uptake by brain tissue (FIG. 7B) ([2]; IT L2, 70 mg/ml, 2.4 ml/day) | distribution around the spinal cord (FIG. 7D) ([2]; IT L2, 70 mg/ml, 2.4 ml/day, steady state) | distribution in the CSF (FIG. 6) ([2]; IT L2, all flow rates of about 0.4 ml/day or greater) | distribution in the CSF ([2]; IT, 0.1 mL/day) | distribution in the CSF ([2]; IT, 0.4 mL/day, 70 mg/ml) | detectability by MRI ([2]; IT, 0.4 mL/day, lower concentrations (17.5 mg/ml, 5.8 mg/ml, 2.9 mg/ml)) | MRI signal intensity ([2]; IT, 2.4 ml/day (100 microliters per hour)) | distribution following infusion into the CSF [3] | supraspinal side effects [4] |
| --- | --- | --- | --- | --- | --- | --- | --- | --- | --- | --- | --- | --- | --- |
| O=C([O-])CN(CCN(CC(=O)[O-])CC(=O)O)CCN(CC(=O)[O-])CC(=O)O.[Gd+3] [Gd-DTPA, gadolinium (Gd) labeled diethylene triamine pentaacetic acid (DTPA)] | evident in the CSF compartments in and around the brain, but not the spinal cord | complete CSF coverage | distributed broadly throughout the CSF in and around the brain and spinal cord | broadly distributed in the CSF, including in the intrathecal space | appears to be taken up by the parenchymal tissue of the brain | distributed in a circumferential manner around the intrathecal space | broad distribution was observed | confined the molecule in the IT space | broadly distributed throughout the CSF | not appreciably detectable by MRI | signal was most intense | broadly distributed | – |
| CN1CC[C@]23c4c5ccc(O)c4O[C@H]2[C@@H](O)C=C[C@H]3[C@H]1C5 [morphine] | – | – | – | – | – | – | – | – | – | – | – | – | do not appear to suffer from any supraspinal side effects |
| NCC(CC(=O)O)c1ccc(Cl)cc1 (centres unmarked) [baclofen] | – | – | – | – | – | – | – | – | – | – | – | – | do not appear to suffer from any supraspinal side effects |
